How the values were obtained:
Calcitonin receptor = target: T1, Calcitonin receptor (Homo sapiens, UniProt P30988); assay type: cell membranes, Membrane; conditions: t47d; also: in other assays of this panel Not Active means under 50% inhibition at 10 µM
T1 sequence (P30988 whole entry): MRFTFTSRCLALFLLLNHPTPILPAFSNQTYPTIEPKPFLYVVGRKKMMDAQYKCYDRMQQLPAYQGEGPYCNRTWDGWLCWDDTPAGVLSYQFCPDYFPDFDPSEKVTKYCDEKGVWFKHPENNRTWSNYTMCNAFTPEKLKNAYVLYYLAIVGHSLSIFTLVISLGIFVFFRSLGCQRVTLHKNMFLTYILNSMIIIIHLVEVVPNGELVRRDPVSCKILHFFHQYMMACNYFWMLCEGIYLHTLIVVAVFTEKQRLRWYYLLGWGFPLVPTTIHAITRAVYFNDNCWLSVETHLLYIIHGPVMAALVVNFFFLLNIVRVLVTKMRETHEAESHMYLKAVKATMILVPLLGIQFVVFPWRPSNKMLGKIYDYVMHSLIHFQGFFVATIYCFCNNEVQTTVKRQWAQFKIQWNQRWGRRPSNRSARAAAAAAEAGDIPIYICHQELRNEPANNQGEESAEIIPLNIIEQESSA

[1] = target: T2, Muscarinic acetylcholine receptor M5 (Homo sapiens, UniProt P08912); assay type: cell membranes, CHO-K1, Membrane; also: in other assays of this panel Not Active means under 50% inhibition at 10 µM
T2 sequence (P08912 whole entry): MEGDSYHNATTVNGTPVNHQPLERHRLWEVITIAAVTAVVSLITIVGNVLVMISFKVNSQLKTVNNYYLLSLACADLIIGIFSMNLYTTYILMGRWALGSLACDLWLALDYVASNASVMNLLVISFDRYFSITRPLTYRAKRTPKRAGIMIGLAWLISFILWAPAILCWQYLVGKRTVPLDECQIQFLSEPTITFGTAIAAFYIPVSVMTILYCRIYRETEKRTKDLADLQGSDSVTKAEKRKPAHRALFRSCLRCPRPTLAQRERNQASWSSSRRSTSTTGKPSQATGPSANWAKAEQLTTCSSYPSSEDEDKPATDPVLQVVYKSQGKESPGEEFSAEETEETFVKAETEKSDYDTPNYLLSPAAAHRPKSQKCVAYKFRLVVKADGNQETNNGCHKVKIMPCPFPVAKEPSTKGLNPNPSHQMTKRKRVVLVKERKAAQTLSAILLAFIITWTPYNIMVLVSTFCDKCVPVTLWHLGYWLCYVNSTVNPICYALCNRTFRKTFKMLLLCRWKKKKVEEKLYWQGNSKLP

[2] = target: Vascular endothelial growth factor receptor 1 (Homo sapiens, UniProt P17948); assay type: cell-based; conditions: huvec; also: in other assays of this panel Not Active means under 50% inhibition at 10 µM
[3] = DRUGMATRIX: Nicotinic Acetylcholine radioligand binding (ligand: [125I] Epibatidine); assay type: cell membranes, Membrane; conditions: imr-32; Not Active = under 50% inhibition at 10 µM
[4] = DRUGMATRIX: Phorbol Ester radioligand binding (ligand: [3H] PDBu); assay type: cell membranes, Mus musculus, ICR, Brain, Membrane; conditions: Not Active = under 50% inhibition at 10 µM
[5] = target: Kappa-type opioid receptor (Homo sapiens, UniProt P41145); assay: DRUGMATRIX: Opiate kappa (OP2, KOP) radioligand binding (ligand: [3H] Diprenorphine); assay type: cell membranes, HEK293, Membrane; conditions: hek293; Not Active = under 50% inhibition at 10 µM
[6] = target: Matrix metalloproteinase-9 (Homo sapiens, UniProt P14780); assay type: cell-based;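 also: inhibition of isolated MMP-9 enzyme activity toward a synthetic peptide substrate, from the DrugMatrix protease screening panel; in other assays of this panel Not Active means under 50% inhibition at 10 µM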
[7] = DRUGMATRIX: ATPase, Na+/K+ enzyme inhibition (substrate: ATP); assay type: tissue-based, Sus scrofa, Heart; conditions: Not Active = under 50% inhibition at 10 µM
Caspase-1 = target: T3, Caspase-1 (Homo sapiens, UniProt P29466); set-up: species or system Escherichia coli
T3 sequence (P29466 whole entry): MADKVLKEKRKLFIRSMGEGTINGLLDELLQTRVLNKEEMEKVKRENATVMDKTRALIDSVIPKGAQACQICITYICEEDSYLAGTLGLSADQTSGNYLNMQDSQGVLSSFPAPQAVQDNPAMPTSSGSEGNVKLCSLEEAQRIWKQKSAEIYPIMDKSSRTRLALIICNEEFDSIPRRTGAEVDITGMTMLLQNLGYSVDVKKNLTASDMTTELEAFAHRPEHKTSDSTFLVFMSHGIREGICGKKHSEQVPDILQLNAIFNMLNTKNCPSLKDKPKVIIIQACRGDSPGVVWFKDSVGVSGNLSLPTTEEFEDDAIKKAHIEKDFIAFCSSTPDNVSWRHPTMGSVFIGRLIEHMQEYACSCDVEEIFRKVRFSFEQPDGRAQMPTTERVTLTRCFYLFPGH

[8] = DRUGMATRIX: GABAA, Flunitrazepam, Central radioligand binding (ligand: [3H] Flunitrazepam); assay type: cell membranes, Rattus norvegicus, Wistar, Brain, Membrane; conditions: Not Active = under 50% inhibition at 10 µM
Cytochrome P450 2C9 = Cytochrome P450 2C9 (Homo sapiens, UniProt P11712); conditions: bti-tn-5b1-4; also: in other assays of this panel Not Active means under 50% inhibition at 10 µM
[9] = target: T4, Type-2 angiotensin II receptor (Homo sapiens, UniProt P50052); assay type: cell-based; conditions: cho-k1; also: in other assays of this panel Not Active means under 50% inhibition at 10 µM
T4 sequence (P50052 whole entry): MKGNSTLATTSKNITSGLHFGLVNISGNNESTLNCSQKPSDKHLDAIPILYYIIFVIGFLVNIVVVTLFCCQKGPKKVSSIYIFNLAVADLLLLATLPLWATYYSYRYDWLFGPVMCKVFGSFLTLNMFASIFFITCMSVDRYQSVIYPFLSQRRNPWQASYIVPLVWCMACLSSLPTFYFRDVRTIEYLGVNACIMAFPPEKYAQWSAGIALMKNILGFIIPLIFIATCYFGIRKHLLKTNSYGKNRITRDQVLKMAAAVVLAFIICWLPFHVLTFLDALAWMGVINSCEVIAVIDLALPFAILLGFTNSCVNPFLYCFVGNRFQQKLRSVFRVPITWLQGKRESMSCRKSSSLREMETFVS

Vascular endothelial growth factor receptor 1, sequence (P17948 whole entry): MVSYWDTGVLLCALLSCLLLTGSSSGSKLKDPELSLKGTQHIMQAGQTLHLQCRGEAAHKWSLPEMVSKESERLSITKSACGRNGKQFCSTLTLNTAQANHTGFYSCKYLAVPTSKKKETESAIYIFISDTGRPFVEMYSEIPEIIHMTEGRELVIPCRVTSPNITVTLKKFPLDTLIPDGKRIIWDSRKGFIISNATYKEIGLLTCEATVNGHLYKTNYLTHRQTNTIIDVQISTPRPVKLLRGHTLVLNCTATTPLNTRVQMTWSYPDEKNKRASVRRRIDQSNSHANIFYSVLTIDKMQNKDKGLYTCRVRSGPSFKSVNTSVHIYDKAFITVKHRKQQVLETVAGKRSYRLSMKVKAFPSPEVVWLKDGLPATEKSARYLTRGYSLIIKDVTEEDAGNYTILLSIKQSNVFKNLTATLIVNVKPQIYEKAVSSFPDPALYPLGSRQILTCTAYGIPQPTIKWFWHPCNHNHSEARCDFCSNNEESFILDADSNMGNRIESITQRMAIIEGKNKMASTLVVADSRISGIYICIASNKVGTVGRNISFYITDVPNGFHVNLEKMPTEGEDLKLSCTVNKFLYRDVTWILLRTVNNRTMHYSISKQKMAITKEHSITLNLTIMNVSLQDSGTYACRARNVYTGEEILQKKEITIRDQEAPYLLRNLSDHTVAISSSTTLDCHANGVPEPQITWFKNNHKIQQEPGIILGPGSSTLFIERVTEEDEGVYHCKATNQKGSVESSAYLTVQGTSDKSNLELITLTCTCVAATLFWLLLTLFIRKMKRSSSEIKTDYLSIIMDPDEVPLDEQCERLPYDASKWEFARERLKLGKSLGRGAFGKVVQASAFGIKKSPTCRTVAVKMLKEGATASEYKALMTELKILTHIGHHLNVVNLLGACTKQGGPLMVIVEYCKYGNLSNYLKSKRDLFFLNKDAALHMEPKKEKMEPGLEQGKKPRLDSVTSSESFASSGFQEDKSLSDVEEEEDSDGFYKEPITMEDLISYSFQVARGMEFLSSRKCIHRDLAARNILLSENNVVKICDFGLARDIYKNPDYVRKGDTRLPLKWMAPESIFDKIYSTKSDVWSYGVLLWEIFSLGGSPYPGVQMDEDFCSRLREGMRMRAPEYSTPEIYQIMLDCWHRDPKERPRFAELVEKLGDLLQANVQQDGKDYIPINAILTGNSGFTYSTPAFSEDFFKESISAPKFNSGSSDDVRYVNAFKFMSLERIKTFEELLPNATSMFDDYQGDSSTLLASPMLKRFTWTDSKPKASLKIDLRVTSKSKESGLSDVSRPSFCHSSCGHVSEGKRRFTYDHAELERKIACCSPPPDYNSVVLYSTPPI
Kappa-type opioid receptor, sequence (P41145 whole entry): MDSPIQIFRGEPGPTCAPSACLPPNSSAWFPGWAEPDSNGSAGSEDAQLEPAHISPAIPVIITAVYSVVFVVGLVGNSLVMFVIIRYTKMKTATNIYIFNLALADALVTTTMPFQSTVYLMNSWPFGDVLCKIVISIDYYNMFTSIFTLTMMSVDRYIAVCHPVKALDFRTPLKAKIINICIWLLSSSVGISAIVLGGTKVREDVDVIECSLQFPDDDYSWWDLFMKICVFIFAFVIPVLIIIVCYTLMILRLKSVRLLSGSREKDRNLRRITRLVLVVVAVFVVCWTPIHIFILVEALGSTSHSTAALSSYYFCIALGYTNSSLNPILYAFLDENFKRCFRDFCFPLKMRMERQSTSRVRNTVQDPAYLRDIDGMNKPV
Cytochrome P450 2C9, sequence (P11712 whole entry): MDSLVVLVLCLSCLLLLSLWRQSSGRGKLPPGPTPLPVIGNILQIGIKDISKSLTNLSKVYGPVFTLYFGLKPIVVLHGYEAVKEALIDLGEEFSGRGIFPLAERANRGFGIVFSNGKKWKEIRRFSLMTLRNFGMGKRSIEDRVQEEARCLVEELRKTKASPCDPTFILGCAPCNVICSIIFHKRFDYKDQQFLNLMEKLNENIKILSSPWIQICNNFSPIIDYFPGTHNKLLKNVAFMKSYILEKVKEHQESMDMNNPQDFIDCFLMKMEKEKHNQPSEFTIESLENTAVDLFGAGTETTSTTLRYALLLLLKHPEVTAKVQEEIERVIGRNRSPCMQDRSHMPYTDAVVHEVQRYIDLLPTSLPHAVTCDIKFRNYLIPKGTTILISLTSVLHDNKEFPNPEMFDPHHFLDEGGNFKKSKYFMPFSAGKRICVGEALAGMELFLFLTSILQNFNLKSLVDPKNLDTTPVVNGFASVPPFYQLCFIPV
Matrix metalloproteinase-9, sequence (P14780 whole entry): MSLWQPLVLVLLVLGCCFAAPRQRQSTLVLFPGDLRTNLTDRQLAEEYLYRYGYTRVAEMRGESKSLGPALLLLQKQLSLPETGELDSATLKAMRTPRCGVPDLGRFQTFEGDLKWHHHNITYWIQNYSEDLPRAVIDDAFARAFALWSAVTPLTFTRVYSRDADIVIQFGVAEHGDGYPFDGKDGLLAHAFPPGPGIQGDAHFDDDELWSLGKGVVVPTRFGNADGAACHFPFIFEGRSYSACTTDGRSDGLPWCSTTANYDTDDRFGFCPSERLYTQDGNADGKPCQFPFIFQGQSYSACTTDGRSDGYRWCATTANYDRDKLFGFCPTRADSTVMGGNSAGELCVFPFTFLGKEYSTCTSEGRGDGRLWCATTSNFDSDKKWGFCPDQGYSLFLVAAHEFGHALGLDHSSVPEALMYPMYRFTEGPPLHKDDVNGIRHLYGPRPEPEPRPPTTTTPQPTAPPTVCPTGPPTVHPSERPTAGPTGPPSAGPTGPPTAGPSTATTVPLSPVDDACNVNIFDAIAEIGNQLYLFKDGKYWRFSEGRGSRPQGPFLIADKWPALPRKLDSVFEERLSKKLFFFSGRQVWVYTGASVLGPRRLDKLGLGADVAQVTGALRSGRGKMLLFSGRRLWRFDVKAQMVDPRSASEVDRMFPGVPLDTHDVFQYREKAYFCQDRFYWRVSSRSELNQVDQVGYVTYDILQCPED

Structure (SMILES): NS(=O)(=O)c1cc2c(cc1Cl)NCNS2(=O)=O [HYDROCHLOROTHIAZIDE]
- IC50 (Calcitonin receptor): Not Active
- IC50 ([1]; cho-k1): Not Active
- IC50 [2]: Not Active
- IC50 [3]: Not Active
- Ki [3]: Not Active
- IC50 [4]: Not Active
- Ki [4]: Not Active
- IC50 [5]: Not Active
- IC50 [6]: Not Active
- IC50 [7]: Not Active
- Ki [7]: Not Active
- IC50 (Caspase-1): Not Active
- IC50 [8]: Not Active
- Ki [8]: Not Active
- IC50 (Cytochrome P450 2C9): Not Active
- Ki (Cytochrome P450 2C9): Not Active
- IC50 [9]: Not Active

Structure (SMILES): CNCCC=C1c2ccccc2CCc2ccccc21 [NORTRIPTYLINE]
- IC50 (Calcitonin receptor): Not Active
- IC50 ([1]; read-out: IC50): 27 nM
- Ki ([1]; read-out: Ki): 20 nM
- IC50 [2]: Not Active
- IC50 [3]: Not Active
- Ki [3]: Not Active
- IC50 [4]: Not Active
- Ki [4]: Not Active
- IC50 [5]: Not Active
- IC50 [6]: Not Active
- IC50 [7]: Not Active
- Ki [7]: Not Active
- IC50 (Caspase-1): Not Active
- IC50 [8]: Not Active
- Ki [8]: Not Active
- IC50 (Cytochrome P450 2C9): Not Active
- Ki (Cytochrome P450 2C9): Not Active
- IC50 [9]: Not Active

Structure (SMILES): COC(=O)[C@H](c1ccccc1Cl)N1CCc2sccc2C1 [CLOPIDOGREL]
- IC50 (Calcitonin receptor): Not Active
- IC50 ([1]; cho-k1): Not Active
- IC50 [2]: Not Active
- IC50 [3]: Not Active
- Ki [3]: Not Active
- IC50 [4]: Not Active
- Ki [4]: Not Active
- IC50 [5]: Not Active
- IC50 [6]: Not Active
- IC50 [7]: Not Active
- Ki [7]: Not Active
- IC50 (Caspase-1): Not Active
- IC50 [8]: Not Active
- Ki [8]: Not Active
- IC50 (Cytochrome P450 2C9): Not Active
- Ki (Cytochrome P450 2C9): Not Active
- IC50 [9]: Not Active

Structure (SMILES): CCOC(=O)c1ccc(N)cc1 [BENZOCAINE]
- IC50 (Calcitonin receptor): Not Active
- IC50 ([1]; cho-k1): Not Active
- IC50 [2]: Not Active
- IC50 [3]: Not Active
- Ki [3]: Not Active
- IC50 [4]: Not Active
- Ki [4]: Not Active
- IC50 [5]: Not Active
- IC50 [6]: Not Active
- IC50 [7]: Not Active
- Ki [7]: Not Active
- IC50 (Caspase-1): Not Active
- IC50 [8]: Not Active
- Ki [8]: Not Active
- IC50 (Cytochrome P450 2C9): Not Active
- Ki (Cytochrome P450 2C9): Not Active
- IC50 [9]: Not Active

Structure (SMILES): COc1ccc2cc(CC(=O)O)ccc2c1
- IC50 (Calcitonin receptor): Not Active
- IC50 ([1]; cho-k1): Not Active
- IC50 [2]: Not Active
- IC50 [3]: Not Active
- Ki [3]: Not Active
- IC50 [4]: Not Active
- Ki [4]: Not Active
- IC50 [5]: Not Active
- IC50 [6]: Not Active
- IC50 [7]: Not Active
- Ki [7]: Not Active
- IC50 (Caspase-1): Not Active
- IC50 [8]: Not Active
- Ki [8]: Not Active
- IC50 (Cytochrome P450 2C9): Not Active
- Ki (Cytochrome P450 2C9): Not Active
- IC50 [9]: Not Active

Structure (SMILES): O=C1CN=C(c2ccccc2)c2cc([N+](=O)[O-])ccc2N1 [NITRAZEPAM]
- IC50 (Calcitonin receptor): Not Active
- IC50 ([1]; cho-k1): Not Active
- IC50 [2]: Not Active
- IC50 [3]: Not Active
- Ki [3]: Not Active
- IC50 [4]: Not Active
- Ki [4]: Not Active
- IC50 [5]: Not Active
- IC50 [6]: Not Active
- IC50 [7]: Not Active
- Ki [7]: Not Active
- IC50 (Caspase-1): Not Active
- IC50 ([8]; read-out: IC50): 54.7 nM
- Ki ([8]; read-out: Ki): 44.6 nM
- IC50 (Cytochrome P450 2C9): Not Active
- Ki (Cytochrome P450 2C9): Not Active
- IC50 [9]: Not Active

Structure (SMILES): CC1=Nc2ccc(Cl)cc2S(=O)(=O)N1 [DIAZOXIDE]
- IC50 (Calcitonin receptor): Not Active
- IC50 ([1]; cho-k1): Not Active
- IC50 [2]: Not Active
- IC50 [3]: Not Active
- Ki [3]: Not Active
- IC50 [4]: Not Active
- Ki [4]: Not Active
- IC50 [5]: Not Active
- IC50 [6]: Not Active
- IC50 [7]: Not Active
- Ki [7]: Not Active
- IC50 (Caspase-1): Not Active
- IC50 [8]: Not Active
- Ki [8]: Not Active
- IC50 (Cytochrome P450 2C9): Not Active
- Ki (Cytochrome P450 2C9): Not Active
- IC50 [9]: Not Active

Structure (SMILES): CC1COc2c(N3CCN(C)CC3)c(F)cc3c(=O)c(C(=O)O)cn1c23 (stereo unspecified) [OFLOXACIN]
- IC50 (Calcitonin receptor): Not Active
- IC50 ([1]; cho-k1): Not Active
- IC50 [2]: Not Active
- IC50 [3]: Not Active
- Ki [3]: Not Active
- IC50 [4]: Not Active
- Ki [4]: Not Active
- IC50 [5]: Not Active
- IC50 [6]: Not Active
- IC50 [7]: Not Active
- Ki [7]: Not Active
- IC50 (Caspase-1): Not Active
- IC50 [8]: Not Active
- Ki [8]: Not Active
- IC50 (Cytochrome P450 2C9): Not Active
- Ki (Cytochrome P450 2C9): Not Active
- IC50 [9]: Not Active

Structure (SMILES): CC(C)(S)[C@@H](N)C(=O)O [PENICILLAMINE]
- IC50 (Calcitonin receptor): Not Active
- IC50 ([1]; cho-k1): Not Active
- IC50 [2]: Not Active
- IC50 [3]: Not Active
- Ki [3]: Not Active
- IC50 [4]: Not Active
- Ki [4]: Not Active
- IC50 [5]: Not Active
- IC50 [6]: Not Active
- IC50 [7]: Not Active
- Ki [7]: Not Active
- IC50 (Caspase-1): Not Active
- IC50 [8]: Not Active
- Ki [8]: Not Active
- IC50 (Cytochrome P450 2C9): Not Active
- Ki (Cytochrome P450 2C9): Not Active
- IC50 [9]: Not Active

Structure (SMILES): CC(=O)CCCCn1c(=O)c2c(ncn2C)n(C)c1=O [PENTOXIFYLLINE]
- IC50 (Calcitonin receptor): Not Active
- IC50 ([1]; cho-k1): Not Active
- IC50 [2]: Not Active
- IC50 [3]: Not Active
- Ki [3]: Not Active
- IC50 [4]: Not Active
- Ki [4]: Not Active
- IC50 [5]: Not Active
- IC50 [6]: Not Active
- IC50 [7]: Not Active
- Ki [7]: Not Active
- IC50 (Caspase-1): Not Active
- IC50 [8]: Not Active
- Ki [8]: Not Active
- IC50 (Cytochrome P450 2C9): Not Active
- Ki (Cytochrome P450 2C9): Not Active
- IC50 [9]: Not Active
